This passage reports Ki results from patent publication US9365589B2, “C5, C6 oxacyclic-fused thiazine dioxide compounds as BACE inhibitors, compositions, and their use” (Merck Sharp & Dohme Corp., priority 2012, dated 2016).

Usually Ki stands for a dissociation constant, usually derived from enzyme kinetics or from competition with a known ligand.

SMILES strings stand for the structures. Where two headings read alike, the source gives them in different places.

Test [1] concerns the target purified human autoBACE-2 (Homo sapiens (Human), UniProt Q9Y5Z0). The experiment in a line: BACE-2 Assay (BACE-HTRF assay). In kind it is biochemical. The procedure: DMSO is present at 5% final concentration in the assay. Following laser excitation of sample wells at 320 nm, the fluorescence signal at 620 nm is collected for 400 ms following a 50 μs delay on a RUBYstar HTRF plate reader (BMG Labtechnologies). Raw RFU data is normalized to maximum (1.0 nM BACE/DMSO) and minimum (no enzyme/DMSO) RFU values. […] The Ki values are calculated from the IC50 using the Cheng-Prusoff equation.
In general terms: In TR-FRET formats the signal depends on donor and acceptor labels being close together.

Test [2] deals with soluble human BACE1 catalytic domain (Homo sapiens (Human), UniProt P56817). The test is described as follows: BACE1 HTRF FRET Assay. In kind it is biochemical. To be noted: Ki calculated from IC50 using the Cheng-Prusoff equation; QSY7-APPswe-Eu substrate, pH 5.0. From the text:
A homogeneous time-resolved FRET assay can be used to determine IC50 values for inhibitors of the soluble human BACE1 catalytic domain. This assay monitors the increase of 620 nm fluorescence that resulted from BACE1 cleavage of an APPswedish APP^swe mutant peptide FRET substrate (QSY7-[…]-Europium-amide). This substrate contains an N-terminal QSY7 moiety that serves as a quencher of the C-terminal Europium fluorophore (620 nm Em). In the absence of enzyme activity, 620 nm fluorescence is low in the assay and increased linearly over 3 hours in the presence of uninhibited BACE1 enzyme Inhibition of BACE1 cleavage of the QSY7-APP^swe-Eu substrate by inhibitors is manifested as a suppression of 620 nm fluorescence.
Reactions are initiated by addition of 10 μl of 600 nM QSY7-APP^swe-Eu substrate (200 nM final) to give a final reaction volume of 30 μl in a 384 well Nunc HTRF plate. The reactions are incubated at 30° C. for 1.5 hours. The 620 nm fluorescence is then read on a Rubystar HTRF plate reader (BMG Labtechnologies) using a 50 millisecond delay followed by a 400 millisecond acquisition time window Inhibitor IC50 values are derived from non-linear regression analysis of concentration response curves.

Chain of soluble human BACE1 catalytic domain (P56817 75-416): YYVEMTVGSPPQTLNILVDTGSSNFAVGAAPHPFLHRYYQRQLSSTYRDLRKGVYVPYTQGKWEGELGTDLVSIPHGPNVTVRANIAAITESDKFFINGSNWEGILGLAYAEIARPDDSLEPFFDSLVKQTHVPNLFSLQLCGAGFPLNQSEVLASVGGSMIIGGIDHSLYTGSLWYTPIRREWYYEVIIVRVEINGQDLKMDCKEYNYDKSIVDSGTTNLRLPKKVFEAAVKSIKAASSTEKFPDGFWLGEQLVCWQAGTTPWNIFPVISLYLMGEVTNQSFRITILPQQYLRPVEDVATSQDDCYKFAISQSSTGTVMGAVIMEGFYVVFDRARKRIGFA
Chain of purified human autoBACE-2 (Q9Y5Z0 63-473 limits assumed): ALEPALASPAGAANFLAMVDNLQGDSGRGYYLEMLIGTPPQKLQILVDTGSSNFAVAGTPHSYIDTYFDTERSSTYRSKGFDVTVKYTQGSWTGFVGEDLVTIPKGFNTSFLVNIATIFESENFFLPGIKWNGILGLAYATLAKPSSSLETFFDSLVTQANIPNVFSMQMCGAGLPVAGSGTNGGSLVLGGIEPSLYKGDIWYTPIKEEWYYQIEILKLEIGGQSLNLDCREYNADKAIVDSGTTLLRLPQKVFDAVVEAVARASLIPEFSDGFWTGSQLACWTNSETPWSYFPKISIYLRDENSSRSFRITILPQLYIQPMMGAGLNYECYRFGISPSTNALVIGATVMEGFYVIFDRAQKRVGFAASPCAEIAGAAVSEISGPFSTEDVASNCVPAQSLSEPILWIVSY

`CO[C@@H](C)C(=O)Nc1ccc(F)c([C@]23COC[C@H]2S(=O)(=O)C(C)(C)C(=N)N3)c1` [Example 1o]: the results for the inhibition constant Ki in test [1] (read-out: BACE2 Ki) and in test [2] were 42 nM and 213 nM, respectively. In the same order, the values of `CC1(C)C(=N)N[C@@]2(c3cc(NC(=O)c4ncc(Cl)cc4F)ccc3F)COC[C@H]2S1(=O)=O` [Example 1k] are 1 nM and 3 nM. In the case of `C#CCOc1ccc(C(=O)Nc2ccc(F)c([C@]34COC[C@H]3S(=O)(=O)C(C)(C)C(=N)N4)c2)nc1` [Example 1y], the Ki was 7 nM in test [1] (read-out: BACE2 Ki) and 1 nM in test [2]. For `C[C@]1(c2ccc(F)cc2)C(=N)N[C@@]2(c3cc(NC(=O)c4ccc(F)cn4)ccc3F)COC[C@H]2S1(=O)=O` [Example 8b], the inhibitory constant (Ki) in test [1] (BACE2 Ki (nM)) and in test [2] was 1 nM each time. In the case of `Cc1cc(C#N)cnc1C(=O)Nc1ccc(F)c([C@]23COC[C@H]2S(=O)(=O)C(C)(C)C(=N)N3)c1` [Example 1u], the Ki in test [1] (read-out: BACE2 Ki) and in test [2] was 1 nM throughout. On to `CC1(C)C(=N)N[C@@]2(c3cc(NC(=O)c4cn5ccsc5n4)ccc3F)COC[C@H]2S1(=O)=O` [Example 1g], for which the inhibition constant Ki in test [1] (read-out: BACE2 Ki) is 3 nM; in test [2], 25 nM. In the same order, the values of `C[C@@]1(C2CC2)C(=N)N[C@@]2(c3cc(NC(=O)c4ccc(F)cn4)ccc3F)COC[C@H]2S1(=O)=O` [Example 13a] are 6 nM and 39 nM.

For the compound `CC1(C)C(=N)N[C@@]2(c3cc(NC(=O)c4ccc(F)cn4)ccc3F)COC[C@H]2S1(=O)=O` [Example 1a], the values for the Ki in test [1] (read-out: BACE2 Ki) and in test [2] were 1 nM and 3.5 nM, respectively. In the same order, the values of `CC1(C)C(=N)N[C@@]2(c3cc(NC(=O)c4cnc(C(F)(F)F)cn4)ccc3F)COC[C@H]2S1(=O)=O` [Example 1q] are 35 nM and 13 nM. Compound `COc1cnc(C(=O)Nc2ccc(F)c([C@]34COC(CF)[C@H]3S(=O)(=O)C(C)(C)C(=N)N4)c2)cn1` (single isomer, unassigned) [Example 4e] yielded a Ki in test [1] (BACE2 Ki (nM)) of 11 nM.

`C[C@]1(C2CC2)C(=N)N[C@@]2(c3cc(NC(=O)c4ccc(F)cn4)ccc3F)COC[C@H]2S1(=O)=O` [Example 13b]: the Ki in test [1] (read-out: BACE2 Ki) was 11 nM; in test [2], 62 nM.

In the case of `CC1(C)C(=N)N[C@@]2(c3cc(NC(=O)C(F)F)ccc3F)COC[C@H]2S1(=O)=O` [Example 1n], the Ki in test [1] (read-out: BACE2 Ki) was 33 nM; in test [2], 258 nM. With `Cc1nc(C(=O)Nc2ccc(F)c([C@]34COC[C@H]3S(=O)(=O)C(C)(C)C(=N)N4)c2)c(C)o1` [Example 1l], the figures for the inhibition constant (Ki) in test [1] (read-out: BACE2 Ki) and in test [2] were 1 nM and 6 nM, respectively. Take `CC1(C)C(=N)N[C@@]2(c3cc(NC(=O)c4ccc(F)cn4)ccc3F)COC(CF)[C@H]2S1(=O)=O` (single isomer, unassigned) [Example 4b]: the Ki in test [1] (BACE2 Ki (nM)) is 18 nM; in test [2], 42 nM. For `C[C@@]1(c2ccc(F)cc2)C(=N)N[C@@]2(c3cc(NC(=O)c4ccc(F)cn4)ccc3F)COC[C@H]2S1(=O)=O` [Example 8a], the Ki was 9 nM in test [1] (BACE2 Ki (nM)) and 84 nM in test [2].

In the case of `COc1cnc(C(=O)Nc2ccc(F)c([C@]34COC[C@H]3S(=O)(=O)C(C)(C)C(=N)N4)c2)c(C)n1` [Example 1t], the Ki was 6 nM in test [1] (read-out: BACE2 Ki) and 10 nM in test [2]. For `Cc1cc(C(=O)Nc2ccc(F)c([C@]34COC[C@H]3S(=O)(=O)C(C)(C)C(=N)N4)c2)on1` [Example 1i], the Ki is 93 nM in test [1] (read-out: BACE2 Ki) and 559 nM in test [2].

On to `CC1(C)C(=N)N[C@@]2(c3cc(NC(=O)c4ccc(OCF)cn4)ccc3F)COC[C@H]2S1(=O)=O` [Example 1x], for which the inhibitory constant (Ki) in test [1] (read-out: BACE2 Ki) was 2 nM; in test [2], 3 nM. With `COc1ccc(C(=O)Nc2ccc(F)c([C@]34COC[C@H]3S(=O)(=O)C(C)(C)C(=N)N4)c2)nc1` [Example 1c], the figures for the inhibition constant (Ki) in test [1] (read-out: BACE2 Ki) and in test [2] were 3 nM and 5.8 nM, respectively. For the compound `Cn1cc(C(=O)Nc2ccc(F)c([C@]34COC[C@H]3S(=O)(=O)C(C)(C)C(=N)N4)c2)c(C(F)(F)F)n1` [Example 1j], the inhibition constant (Ki) is 309 nM in test [1] (read-out: BACE2 Ki) and 1100 nM in test [2]. In the same order, the values of `Cc1cc(C(=O)Nc2ccc(F)c([C@]34COC[C@H]3S(=O)(=O)C(C)(C)C(=N)N4)c2)no1` [Example 1f] are 24 nM and 201 nM.

On to `CC1(C)C(=N)N[C@@]2(c3cc(NC(=O)c4cnc(OCCF)cn4)ccc3F)COC[C@H]2S1(=O)=O` [Example 1h], for which the Ki is 18 nM in test [1] (read-out: BACE2 Ki) and 7 nM in test [2]. For `CC1(C)C(=N)N[C@@]2(c3cc(NC(=O)c4ccc(Cl)cn4)ccc3F)COC[C@H]2S1(=O)=O` [Example 1b], in that order: 1 nM and 2.5 nM. In the case of `COCC(=O)Nc1ccc(F)c([C@]23COC[C@H]2S(=O)(=O)C(C)(C)C(=N)N3)c1` [Example 1m], the figures for the inhibition constant Ki in test [1] (read-out: BACE2 Ki) and in test [2] were 5 nM and 74 nM, respectively. For `CC1(C)C(=N)N[C@@]2(c3cc(NC(=O)c4ccc(C#N)cn4)ccc3F)COC[C@H]2S1(=O)=O` [Example 1r], in that order: 1 nM and 1 nM. For `CC1(C)C(=N)N[C@@]2(c3cc(NC(=O)c4cnsn4)ccc3F)COC[C@H]2S1(=O)=O` [Example 1v], in that order: 1 nM and 8 nM. For `CO[C@H](C)C(=O)Nc1ccc(F)c([C@]23COC[C@H]2S(=O)(=O)C(C)(C)C(=N)N3)c1` [Example 1p], in that order: 16 nM and 151 nM. Take `C#CCOc1cnc(C(=O)Nc2ccc(F)c([C@]34COC[C@H]3S(=O)(=O)C(C)(C)C(=N)N4)c2)cn1` [Example 1w]: the Ki in test [1] (read-out: BACE2 Ki) is 2 nM; in test [2], 1 nM. With `COc1cnc(C(=O)Nc2ccc(F)c([C@]34COC(CF)[C@H]3S(=O)(=O)C(C)(C)C(=N)N4)c2)cn1` (single isomer, unassigned) [Example 4h], the Ki in test [1] (BACE2 Ki (nM)) was found to be 476 nM.

With `COc1cnc(C(=O)Nc2ccc(F)c([C@]34COC[C@H]3S(=O)(=O)C(C)(C)C(=N)N4)c2)cn1` [Example 1d], the Ki in test [1] (read-out: BACE2 Ki) was 5 nM; in test [2] it was 6.2 nM.

Consider `CC1(C)C(=N)N[C@@]2(c3cc(NC(=O)c4ccn(C(F)F)n4)ccc3F)COC[C@H]2S1(=O)=O` [Example 1z], for which the Ki in test [1] (read-out: BACE2 Ki) and in test [2] was 1 nM throughout.

As to `COc1cnc(C(=O)Nc2ccc(F)c([C@]34COC[C@H]3S(=O)(=O)C(C)(C)C(=N)N4)c2)c(C)c1` [Example 1s], the Ki was 1 nM in test [1] (read-out: BACE2 Ki) and 4 nM in test [2].

For `CC1(C)C(=N)N[C@@]2(c3cc(NC(=O)c4ccc(F)cn4)ccc3F)COC(CF)[C@H]2S1(=O)=O` (single isomer, unassigned) [Example 4a], the inhibitory constant (Ki) in test [1] (BACE2 Ki (nM)) is 1 nM; in test [2], 3 nM. As to `Cn1ccc(C(=O)Nc2ccc(F)c([C@]34COC[C@H]3S(=O)(=O)C(C)(C)C(=N)N4)c2)n1` [Example 1e], the inhibition constant Ki in test [1] (read-out: BACE2 Ki) was 2 nM; in test [2], 13 nM. On to `CC1(C)C(=N)N[C@@]2(c3cc(NC(=O)c4ccc(C(F)(F)F)cn4)ccc3F)COC[C@H]2S1(=O)=O` [Example 1aa], for which the Ki in test [1] (read-out: BACE2 Ki) was 8 nM; in test [2], 3 nM.
